Assays:
climacteric produce = assay: Controlled ripening of climacteric produce; assay type: in vivo
Description: Avacados and grocery bananas (pretreated at warehouse or retail facility) were acquired directly from local supermarket, and ‘non-gassed’ bananas were directly purchased from local produce distribution center (Coastal Sunbelt, Jessup, Md.).

bananas [1] = assay: Texture (tensile property, firmness) of bananas after ripening treatment; assay type: in vivo, banana
Description: (§1) Each measurement was repeated at least three times. […] Five replicates were measured for each measurement.
(§2) Tensile Property. […] At least five replicates were measured for each treatment.

avocados [2] = assay: Color change of avocados after ethylene mediated ripening treatment (colorimeter); assay type: in vivo, avocado
Description: (§3) The color change of the produce was measured using a Minolta colorimeter (Minolta Co. Ltd, Japan). The L values reported were means of 12 readings; three readings from each side of each of the bananas, and two readings per avocado. For bananas, ‘a’ was an indicator of green, and higher ‘a’ value meant less green; ‘b’ was an indicator of yellow, and higher ‘b’ value meant more yellow. For avocados, the degree of browning was expressed by the percent decrease in the L value calculated by subtracting the L value of treated and control samples measured at evaluation times from the time zero L value obtained from untreated samples measured immediately after cutting, divided by the time zero value and multiplied by 100.

bananas [3] = assay: Color change of bananas after ethylene mediated ripening treatment (colorimeter); assay type: in vivo; conditions: banana surface color after ripening treatment (48 hours)
Description: as §3

avocados [4] = conditions: after 48 hours of treatment
Description: as §1, §2

[5] = avocado surface color after ripening treatment (48 hours)

## C=C [ethylene]
Climacteric produce; after 48 hours of treatment
  ripening state of samples: fully ripened
Climacteric produce; versus no ethylene treatment
  total ripening time required: reduced by a half
Bananas [1]
  Young's modulus (initial slope): change of elasticity of bananas: less elastic and more viscous
Avocados [2]; after treatment, in words
  skin color of avocado: darkened slightly
Avocados [2]; [5]
  L: 30.17 ± 0.23
  a: −1.31 ± 3.01
  b: 13.54 ± 1.66
  c: 13.60 ± 3.44
  h: 95.53 ± 0.29
Bananas [3]
  L: 66.74 ± 0.77
  c: 45.80 ± 4.64
  h: 92.08 ± 0.83
Bananas [3]; higher a = less green
  a: −1.66 ± 0.57
Bananas [3]; higher b = more yellow
  b: 45.77 ± 4.60
Avocados [4]
  avocado flesh texture: softened significantly
